Results published in US8883782B2, “Spiro-tetracyclic ring compounds as beta-secretase modulators and methods of use” (Amgen Inc., priority 2010, dated 2014).
Read-outs that look alike come from different tables or passages of the source. Values belong to the molecule of their own block, whether it stands above or below them.

Experiments:
[1] = system: Aβ40 in conditioned medium of cells stably expressing Amyloid Precursor Protein (APP); assay: In vitro BACE cell-based assay (Aβ40 in conditioned medium, sandwich ELISA)
Experimental: In Vitro BACE Cell-Based Assay
The cell-based assay measures inhibition or reduction of Aβ40 in conditioned medium of test compound treated cells expressing amyloid precursor protein.
Cells stably expressing Amyloid Precursor Protein (APP) were plated at a density of 40K cells/well in 96 well plates (Costar). The cells were cultivated for 24 hours at 37° C. and 5% CO2 in DMEM supplemented with 10% FBS. The test compounds were then added to cells in 10-point dose response concentrations with the starting concentration being either 100 μM or 10 μM. The compounds were diluted from stock solutions in DMSO and the final DMSO concentration of the test compounds on cells was 0.1%. […] The IC50 of the compound was calculated from the percent of control or percent inhibition of Aβ 40 as a function of the concentration of the test compound.
The sandwich ELISA to detect Aβ 40 was performed in 96 well microtiter plates, which were pre-treated with goat anti-rabbit IgG (Pierce). The capture and detecting antibody pair that were used to detect Aβ 40 from cell supernatants were affinity purified pAb40 (Biosource) and biotinylated 6E10 (Signet Labs Inc.), respectively. The optimal concentration for the pAb40 antibody was 3 μg/ml in Superblock/TBS (Pierce) that was supplemented with 0.05% Tween 20 (Sigma).
Cellular supernatants were incubated with the capture antibody for 3 h at 4° C., followed by 3 wash steps in TBS-tween (0.05%). The detecting antibody incubation was for 2 h at 4° C., again followed by the wash steps as described previously. The final readout of the ELISA is Time-Resolved Fluorescence (counts per minute) using Delfia reagents Streptavidin-Europium and Enhancement solutions (Perkin Elmer) and the Victor 2 multilabel counter (Perkin Elmer).

[2] = biological target: Beta Secretase enzyme (BACE) (Homo sapiens, UniProt P56817); assay: In vitro enzymatic BACE FRET (fluorescence resonance energy transfer) assay; assay type: biochemical
Experimental: In Vitro Enzymatic Bace Fret (Fluorescence Resonance Energy Transfer) Assay (Enzyme Assay Data in the Example Table I)
The assay buffer used in this screen is 0.05 M acetate, pH 4.2, 10% DMSO final, 100 uM genapol (which is a nonionic detergent, below its Critical Micelle Concentration). […] This assay is effectively started by the addition of FRET substrate (50 nM) and the combination is incubated for one hour. The FRET assay is terminated with by addition of Tris buffer, which raises the pH to neutrality, and the fluorescence is determined. The FRET substrate is a peptide with commercially available fluorophore and quencher, on opposite sides of the BACE cleavage site.

[3] = average IC50, enzyme assay, read-out: BACE 1 FRET assay
[4] = Homo sapiens, HEK293, average IC50, HEK cells, read-out: HEK cell assay
[5] = Homo sapiens, HEK293, average IC50, read-out: HEK cell assay
[6] = Homo sapiens, HEK293, read-out: HEK cell assay (uM)
[7] = average IC50, read-out: HEK cell assay

Beta Secretase enzyme (BACE), sequence (P56817 46-501, species assumed): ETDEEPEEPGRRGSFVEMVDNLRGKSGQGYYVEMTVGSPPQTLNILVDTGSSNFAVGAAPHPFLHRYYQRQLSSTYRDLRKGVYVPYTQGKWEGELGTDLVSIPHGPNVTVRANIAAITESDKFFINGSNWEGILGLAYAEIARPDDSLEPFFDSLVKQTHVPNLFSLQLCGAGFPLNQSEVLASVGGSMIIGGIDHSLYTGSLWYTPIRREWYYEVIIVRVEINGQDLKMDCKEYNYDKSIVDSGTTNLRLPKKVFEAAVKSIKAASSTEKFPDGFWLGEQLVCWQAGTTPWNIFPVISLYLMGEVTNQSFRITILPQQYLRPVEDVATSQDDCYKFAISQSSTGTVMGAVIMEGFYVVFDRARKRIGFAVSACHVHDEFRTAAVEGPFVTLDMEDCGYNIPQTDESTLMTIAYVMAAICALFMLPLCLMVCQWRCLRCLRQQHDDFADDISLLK

Molecule: NC1=N[C@@]2(CO1)c1cc(-c3c(F)ccnc3F)ccc1Oc1cnc([C@H]3CCCOC3)cc12 (mixture of isomers) [Example 909, (5S)-7-(2,4-difluoro-3-pyridinyl)-3-((3R)-tetrahydro-2H-pyran-3-yl)spiro[chromeno[2,3-c]pyridine-5,4′-[1,3]oxazol]-2′-amine, (5S)-7-(2,4-difluoro-3-pyridinyl)-3-((3S)-tetrahydro-2H-pyran-3-yl)spiro[chromeno[2,3-c]pyridine-5,4′-[1,3]oxazol]-2′-amine]
IC50 [2, 3]: 0.0198 µM
IC50 ([1]; read-out: HEK cell assay): 0.266 µM

Molecule: Cc1cc(-c2cc3c(c(F)n2)Oc2ccc(-c4cccnc4F)cc2[C@]32CSC(N)=N2)ccn1 (racemic) [Example 1032, (5R)-1-fluoro-7-(2-fluoro-3-pyridinyl)-3-(2-methyl-4-pyridinyl)spiro[chromeno[2,3-c]pyridine-5,4′-[1,3]thiazol]-2′-amine, (5S)-1-fluoro-7-(2-fluoro-3-pyridinyl)-3-(2-methyl-4-pyridinyl)spiro[chromeno[2,3-c]pyridine-5,4′-[1,3]thiazol]-2′-amine]
IC50 [2, 3]: 0.0004 µM
IC50 ([1]; read-out: HEK cell assay): 0.003 µM

Molecule: NC1=N[C@@]2(CS1)c1cc(-c3cccnc3F)ccc1Oc1cnc(N3CCC(F)(F)C3)cc12 (single isomer, unassigned) [Example 704]
IC50 [2, 3]: 0.0003 µM
IC50 [1, 4]: 0.012 µM

Molecule: NC1=N[C@@]2(CO1)c1cc(-c3cccnc3F)ccc1Oc1c(F)cc(C3=CCCOC3)cc12 [Example 129, (S)-2′-(5,6-dihydro-2H-pyran-3-yl)-4′-fluoro-7′-(2-fluoropyridin-3-yl)-5H-spiro[oxazole-4,9′-xanthen]-2-amine]
IC50 [1, 5]: 0.0032 µM

Molecule: NC1=N[C@@]2(CO1)c1cc(-c3cccnc3F)ccc1Oc1cnc(N3CC[C@H](F)C3)cc12 [Example 133, (S)-7-(2-fluoropyridin-3-yl)-3-((S)-3-fluoropyrrolidin-1-yl)-5′H-spiro[chromeno[2,3-c]pyridine-5,4′-oxazol]-2′-amine]
IC50 [1, 6]: 0.0096 µM

Molecule: NC1=N[C@@]2(CO1)c1cc(-c3cccnc3F)ccc1Oc1c(F)cc(N3CCOCC3)cc12 [Example 139, (S)-4′-fluoro-7′-(2-fluoropyridin-3-yl)-2′-morpholino-5H-spiro[oxazole-4,9′-xanthen]-2-amine]
IC50 [1, 5]: 0.0052 µM

Molecule: NC1=N[C@@]2(CO1)c1cc(-c3cccnc3F)ccc1Oc1cnc(N3CCOCC3)cc12 [Example 890, (5S)-7-(2-fluoro-3-pyridinyl)-3-(4-morpholinyl)spiro[chromeno[2,3-c]pyridine-5,4′-[1,3]oxazol]-2′-amine]
IC50 ([2]; BACE 1 FRET assay (uM)): 0.0013 µM

Molecule: (4R)-4′-fluoro-2′-methoxy-7′-(5-pyrimidinyl)spiro[1,3-thiazole-4,9′-xanthen]-2-amine [Example 217]
IC50 [1, 7]: 1.57 µM

Molecule: (4S)-4′-fluoro-2′-methoxy-7′-(5-pyrimidinyl)spiro[1,3-thiazole-4,9′-xanthen]-2-amine [Example 216]
IC50 [1, 7]: 0.045 µM

Molecule: (4S)-4′-fluoro-7′-(2-fluoro-3-pyridinyl)-2′-(2-oxa-6-azaspiro[3.4]oct-6-yl)spiro[1,3-oxazole-4,9′-xanthen]-2-amine [Example 857]
IC50 [2, 3]: < 0.002 µM

Molecule: (4S)-4′-fluoro-7′-(2-fluoro-3-pyridinyl)-2′-(6-methoxy-3-pyridinyl)spiro[1,3-oxazole-4,9′-xanthen]-2-amine [Example 224]
IC50 [2, 3]: 0.002 µM

Molecule: (4S)-4′-fluoro-7′-(2-fluoro-3-pyridinyl)-2′-(6-methyl-3-pyridinyl)spiro[1,3-oxazole-4,9′-xanthen]-2-amine [Example 223]
IC50 [2, 3]: 0.002 µM

Molecule: (4S)-7′-bromo-4′-fluoro-2′-methoxyspiro[1,3-thiazole-4,9′-xanthen]-2-amine [Example 218]
IC50 [1, 7]: 0.128 µM

Next, values leading:

IC50 ([1]; average IC50, HEK cells, read-out: HEK cell assay): 1.09 µM
Molecule: 2′-amino-9-fluoro-7-((3-methyl-3-oxetanyl)ethynyl)spiro[chromeno[2,3-c]pyridine-5,4′-[1,3]oxazol]-3-yl)benzonitrile [Example 694]

IC50 [2, 3]: 0.0224 µM
IC50 [1, 4]: 0.205 µM
Molecule: CN(C)c1cc2c(cn1)Oc1ccc(-c3cccnc3F)cc1C21COC(N)=N1 (racemic) [Example 706]

IC50 [1, 5]: 0.0097 µM
Molecule: NC1=N[C@@]2(CO1)c1cc(-c3cccnc3F)ccc1Oc1c(F)cc(-c3ccccn3)cc12 [Example 196, (4S)-4′-fluoro-7′-(2-fluoro-3-pyridinyl)-2′-(2-pyridinyl)spiro[1,3-oxazole-4,9′-xanthen]-2-amine]

IC50 [1, 5]: 0.0085 µM
Molecule: NC1=N[C@@]2(CO1)c1cc(-c3cccnc3F)ccc1Oc1c(F)cc(N3CC[C@@H](F)C3)cc12 [Example 279, (4S)-4′-fluoro-7′-(2-fluoro-3-pyridinyl)-2′-((3R)-3-fluoro-1-pyrrolidinyl)spiro[1,3-oxazole-4,9′-xanthen]-2-amine]

IC50 [1, 5]: 0.0069 µM
Molecule: NC1=N[C@@]2(CO1)c1cc(-c3cccnc3F)ccc1Oc1c(F)cc(N3CC[C@H](F)C3)cc12 [Example 280, (S)-4′-fluoro-7′-(2-fluoropyridin-3-yl)-2′-((S)-3-fluoropyrrolidin-1-yl)-5H-spiro[oxazole-4,9′-xanthen]-2-amine]

IC50 [1, 7]: 0.0843 µM
Molecule: CC(C)(C)C#Cc1cnc2c(c1)[C@]1(COC(N)=N1)c1cc(-c3cncnc3)c(F)cc1O2 [Example 340, (5S)-3-(3,3-dimethyl-1-butyn-1-yl)-8-fluoro-7-(5-pyrimidinyl)spiro[chromeno[2,3-b]pyridine-5,4′-[1,3]oxazol]-2′-amine]

IC50 [1, 6]: 0.0049 µM
Molecule: NC1=N[C@@]2(CO1)c1cc(-c3cccnc3F)ccc1Oc1cnc(N3CC[C@@H](F)C3)cc12 [Example 416, (5S)-7-(2-fluoro-3-pyridinyl)-3-((3R)-3-fluoro-1-pyrrolidinyl)spiro[chromeno[2,3-c]pyridine-5,4′-[1,3]oxazol]-2′-amine]

IC50 [1, 4]: 0.0065 µM
Molecule: NC1=N[C@@]2(CO1)c1cc(-c3cccnc3F)ccc1Oc1ncc(C3=CCOCC3)cc12 [Example 460, (5S)-3-(3,6-dihydro-2H-pyran-4-yl)-7-(2-fluoro-3-pyridinyl)spiro[chromeno[2,3-b]pyridine-5,4′-[1,3]oxazol]-2′-amine]

IC50 [1, 4]: 10 µM
Molecule: NC1=N[C@@]2(CS1)c1cc(Br)ccc1Oc1cnc(Cl)cc12 [Example 588, (5S)-7-bromo-3-chlorospiro[chromeno[2,3-c]pyridine-5,4′-[1,3]thiazol]-2′-amine]

IC50 [1, 4]: 0.039 µM
Molecule: NC1=N[C@@]2(CS1)c1cc(-c3cccnc3F)ccc1Oc1cnc(-c3ccnc(F)c3)cc12 [Example 589, (5S)-7-(2-fluoro-3-pyridinyl)-3-(2-fluoro-4-pyridinyl)spiro[chromeno[2,3-c]pyridine-5,4′-[1,3]thiazol]-2′-amine]

IC50 [1, 4]: 0.332 µM
Molecule: NC1=N[C@@]2(CO1)c1cc(-c3cccc(F)n3)ccc1Oc1cnc(-c3ccnc(F)c3)cc12 [Example 632, (5S)-3-(2-fluoro-4-pyridinyl)-7-(6-fluoro-2-pyridinyl)spiro[chromeno[2,3-c]pyridine-5,4′-[1,3]oxazol]-2′-amine]

IC50 [1, 5]: 3.06 µM
Molecule: NC1=N[C@@]2(CO1)c1cc(-c3cccnc3F)ccc1Oc1c2cc(C2=COCCC2)nc1F [Example 807, (5S)-3-(3,4-dihydro-2H-pyran-5-yl)-1-fluoro-7-(2-fluoro-3-pyridinyl)spiro[chromeno[2,3-c]pyridine-5,4′-[1,3]oxazol]-2′-amine]

IC50 [1, 5]: 0.002 µM
Molecule: NC1=N[C@@]2(CO1)c1cc(-c3cncc(C#CCO)c3)ccc1Oc1cnc(C3=CCOCC3)cc12 [Example 826, 3-(5-((5S)-2′-amino-3-(3,6-dihydro-2H-pyran-4-yl)spiro[chromeno[2,3-c]pyridine-5,4′-[1,3]oxazol]-7-yl)-3-pyridinyl)-2-propyn-1-ol]

IC50 [1, 4]: 0.609 µM
Molecule: NC1=N[C@]2(CO1)c1cc(-c3cccnc3F)ccc1Oc1c2cc(C2=CCCOC2)nc1F [Example 908, (5R)-3-(5,6-dihydro-2H-pyran-3-yl)-1-fluoro-7-(2-fluoro-3-pyridinyl)spiro[chromeno[2,3-c]pyridine-5,4′-[1,3]oxazol]-2′-amine]

IC50 [1, 5]: ≥ 10 µM
Molecule: NC1=N[C@@]2(CS1)c1cc(Br)ccc1Oc1cnc(Cl)cc12 [Example 994, (5S)-7-bromo-3-chlorospiro[chromeno[2,3-c]pyridine-5,4′-[1,3]thiazol]-2′-amine]

IC50 [1, 5]: 1.18 µM
Molecule: NC1=N[C@]2(CS1)c1cc(-c3cccnc3F)ccc1Oc1c2cc(-c2ccnc(F)c2)nc1F [Example 997, (5R)-1-fluoro-7-(2-fluoro-3-pyridinyl)-3-(2-fluoro-4-pyridinyl)spiro[chromeno[2,3-c]pyridine-5,4′-[1,3]thiazol]-2′-amine]
